Active and inactive are the calls of the source. No cut-off for these calls is given here.
Legend:
[1] = Inhibition of Influenza A virus H5N1 neuraminidase; parameters: species or system H5N1 subtype
A549 = test: Antiviral activity against Influenza A virus H5N1 infected in human A549 cells assessed as inhibition of viral replication by TCID50 assay; assay type: functional, cell-based; conditions: H5N1 subtype
H5N1 subtype [2] = test: Antiviral activity against Influenza A virus H5N1 (A/chicken/Hubei/327/2004(H5N1)) infected in dog MDCK cells assessed as inhibition of virus replication by plaque reduction assay; assay type: functional, organism-based
[3] = Selectivity index, ratio of CC50 for cytotoxicity against dog MDCK cells to EC50 for antiviral activity against Influenza A virus (A/chicken/Hubei/327/2004(H5N1)) infected in dog MDCK cells; assay type: toxicity, cell-based; conditions: read-out: Ratio CC50/EC50
[4] = Cytotoxicity against dog MDCK cells assessed as decrease in cell viability by CCK8 assay; assay type: cell-based, Canis lupus familiaris
H5N1 subtype [5] = test: Potency index, ratio of oseltamivir carboxylate IC50 to test compound IC50 for inhibition of Influenza A virus H5N1 neuraminidase

With CCOC(=O)c1c(NC(=O)COc2ccc(NC(C)=O)cc2)sc(C(=O)OC)c1C as the molecule, how does the IC50 [1] read?
The IC50 was 50 nM.

With CCOC(=O)c1c(NC(=O)COc2cccc(C(C)=O)c2)sc(C(=O)OC)c1C as the molecule, how does the IC50 [1] read?
The IC50 was 4770 nM.

Which IC50 [1] does the source give for CCOC(=O)c1c(NC(=O)COc2ccc(C=O)cc2)sc(C(=O)OC)c1C here?
The IC50 was 8860 nM.

For CCOC(=O)c1c(NC(=O)COc2cc(Br)ccc2OC)sc(C(=O)OC)c1C, which IC50 [1] is on record?
The IC50 was 240 nM.

Which results are given for CCOC(=O)c1c(NC(=O)COc2ccc3ncccc3c2)sc(C(=O)OC)c1C?
IC50 [1]: 30 nM; Activity (A549): Active; EC50 (H5N1 subtype [2]): 1590 nM; selectivity ratio [3]: > 500; CC50 [4]: > 800000 nM; Ratio IC50 (H5N1 subtype [5]): 2

Which IC50 [1] does the source give for CCOC(=O)c1c(NC(=O)COc2cccc3ncccc23)sc(C(=O)OC)c1C here?
The IC50 was 40 nM.

With CCOC(=O)c1c(NC(=O)COc2cccc(C=O)c2)sc(C(=O)OC)c1C as the molecule, how does the IC50 [1] read?
The IC50 was 5650 nM.

For CCOC(=O)c1c(NC(=O)COc2ccc(C=O)cc2OC)sc(C(=O)OC)c1C, which IC50 [1] is on record?
Its IC50 is 4390 nM.

Which IC50 [1] does the source give for CCOC(=O)c1c(NC(=O)COc2ccc(C=O)cc2OCC)sc(C(=O)OC)c1C here?
The IC50 was 70 nM.

For CCOC(=O)c1c(NC(=O)COc2ccccn2)sc(C(=O)OC)c1C, which IC50 [1] is on record?
The IC50 was 960 nM.

Reference: ChEMBL document CHEMBL4828742, “Discovery of novel thiophene derivatives as potent neuraminidase inhibitors” (Eur J Med Chem, 2021)
